Experimental data from the NIST ThermoML archive (doi:10.1016/j.fluid.2014.12.040).

Assay: xn = mol fraction of the nth substance listed
Settings: for surface tension liquid-gas: Wilhelmy-plate method; for mass density: 100 kPa, Liquid, Vibrating tube method

CC(O)CO (stereo not given) [1,2-propanediol] + O
Settings	mass density, 298.15 K [kg/m3]	mass density, 308.15 K [kg/m3]	mass density, 318.15 K [kg/m3]	mass density, 328.15 K [kg/m3]	surface tension liquid-gas, 298.15 K [mN/m]	surface tension liquid-gas, 308.15 K [mN/m]	surface tension liquid-gas, 318.15 K [mN/m]	surface tension liquid-gas, 328.15 K [mN/m]
x1 = 0.05	1011.79	1007.53	1002.61	997.16	56.18	54.93	53.89	52.6
x1 = 0.1	1022.73	1017.48	1011.69	1005.39	50.94	49.9	48.9	47.83
x1 = 0.15	1030.33	1024.23	1017.73	1010.88	47.41	46.53	45.71	44.66
x1 = 0.2	1035.27	1028.47	1021.65	1014.32	45.19	44.36	43.45	42.52
x1 = 0.25	1038.27	1031.17	1023.85	1016.27	43.64	42.89	42.15	41.17
x1 = 0.3	1039.85	1032.55	1025.01	1017.25	42.6	41.92	41.19	40.38
x1 = 0.35	1040.55	1033.05	1025.42	1017.54	41.43	40.86	40.19	39.49
x1 = 0.4	1040.6	1033.02	1025.34	1017.47	40.47	39.78	39.24	38.57
x1 = 0.45	1040.28	1032.76	1025.05	1017.1	39.44	38.89	38.36	37.8
x1 = 0.5	1039.83	1032.3	1024.54	1016.59	38.76	38.27	37.73	37.19
x1 = 0.55	1039.24	1031.7	1023.93	1016	37.95	37.5	37.07	36.55
x1 = 0.6	1038.53	1031.03	1023.29	1015.39	37.4	36.94	36.63	36.15
x1 = 0.65	1037.84	1030.31	1022.58	1014.69	36.98	36.57	36.15	35.75
x1 = 0.7	1037.09	1029.56	1021.87	1014	36.8	36.35	35.89	35.53
x1 = 0.75	1036.33	1028.81	1021.11	1013.3	36.62	36.24	35.79	35.32
x1 = 0.8	1035.57	1028.06	1020.37	1012.54	36.44	36.1	35.66	35.17
x1 = 0.85	1034.81	1027.32	1019.61	1011.8	36.26	35.94	35.52	35.04
x1 = 0.9	1034.08	1026.59	1018.9	1011.06	36.08	35.76	35.4	34.88
x1 = 0.95	1033.35	1025.88	1018.19	1010.37	35.9	35.52	35.14	34.75
x1 = 1	1032.69	1025.21	1017.51	1009.78	35.74	35.35	34.96	34.6
